Measurements reported in paper PMC11547804, “Synthesis and Evaluation of Phenyltriazole-Deoxynojirimycin Hybrids as Potent α-Glucosidase Inhibitors” (Molecules, 2024).
“Also recorded” adds a separate entry of the source. Where two headings read alike, the source gives them in different places.

Legend:
α-glucosidase (yeast) [1] = biological target: T1, α-glucosidase (yeast) (Saccharomyces cerevisiae, UniProt P53341); design: method as in doi:10.1080/07328303.2020.1837150; settings: data for 7–9 and DNJ included for comparative purposes; cited from earlier work
T1 construct: purchased Sigma Chemical Co., St. Louis, MO, USA
T1 sequence (P53341 whole entry): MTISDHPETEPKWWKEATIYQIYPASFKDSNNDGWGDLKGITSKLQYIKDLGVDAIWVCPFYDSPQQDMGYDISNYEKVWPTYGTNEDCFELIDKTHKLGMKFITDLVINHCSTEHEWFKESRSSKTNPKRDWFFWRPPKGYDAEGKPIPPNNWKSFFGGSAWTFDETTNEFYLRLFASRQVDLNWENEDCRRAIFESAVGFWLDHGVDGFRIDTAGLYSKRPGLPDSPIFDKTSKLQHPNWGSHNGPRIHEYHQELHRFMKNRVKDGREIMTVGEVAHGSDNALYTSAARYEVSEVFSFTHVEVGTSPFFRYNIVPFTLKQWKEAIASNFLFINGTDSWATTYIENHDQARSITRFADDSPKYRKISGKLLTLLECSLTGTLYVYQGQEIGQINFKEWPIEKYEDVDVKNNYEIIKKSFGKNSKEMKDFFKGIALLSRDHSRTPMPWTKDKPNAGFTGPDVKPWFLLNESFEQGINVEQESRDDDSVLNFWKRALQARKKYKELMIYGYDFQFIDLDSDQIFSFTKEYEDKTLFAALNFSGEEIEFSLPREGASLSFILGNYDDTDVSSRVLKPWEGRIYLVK

β-glucosidase (almonds) [2] = settings: data for 7–9 and DNJ included for comparative purposes; cited from earlier work
α-glucosidase (yeast) [3] = biological target: T1, α-glucosidase (yeast); experiment: α-glucosidase (yeast) inhibition assay, p-nitrophenyl glycopyranoside substrate; format: biochemical; settings: 50 mM phosphate buffer pH 6.8, 37 °C; mean ± SD, three independent experiments
Method: (§1) Compounds 10–20 (except 15 for solubility reasons) were evaluated by in vitro α-glucosidase (yeast), β-glucosidase (almonds) inhibition studies.
(§2) Two glycosidases, α-glucosidase (yeast) and β-glucosidase (almonds), and their corresponding substrates, p-nitrophenyl glycopyranosides, were purchased from Sigma Chemical Co., St. Louis, MO, USA. Other commercial reagents and solvents were used as received. Reactions were monitored by Thin Layer Chromatography (TLC) analyses using silica gel GF254 plates bearing a 0.25 mm layer. Visualization of compounds was detected by short-wave UV fluorescence (λ = 254 nm) and/or by dipping into 5% phosphomolybdic acid in EtOH. Column chromatography was carried out by silica gel (200–300 mesh). NMR spectra (^1H and ^13C) were recorded with Bruker AV III 500 MHz spectrometer using CDCl3 (22–33), D2O (10–13, 16–20) or CD3OD (14, 15) as solvents. High-resolution mass spectra (HRMS) were obtained by direct injection on a mass spectrometer (Thermo Scientific LTQ Orbitrap XL, Waltham, MA, USA) equipped with an electrospray ion source in positive mode (see Supplementary Materials).
(§3) The α-glucosidase and β-glucosidase assays were performed in 50 mM phosphate buffer (pH 6.8) at 37 °C. The inhibitors were pre-incubated with the enzyme solutions at 37 °C for 15 min, and then the corresponding substrates were added. After the enzymatic reaction was incubated at 37 °C for 15 min., it was quenched by adding Na2CO3. Absorbance readings were taken on a BioTek µQuant Microplate Spectrophotometer at 405 nm. Experiments were performed in triplicate. The IC50 values were determined graphically using GraphPad Prism (version 8.0).

β-glucosidase (almonds) [4] = experiment: β-glucosidase (almonds) inhibition assay, p-nitrophenyl glycopyranoside substrate; format: biochemical; settings: 50 mM phosphate buffer pH 6.8, 37 °C; mean ± SD, three independent experiments
Method: as §1, §2, §3

yeast α-glucosidase = biological target: T2, yeast α-glucosidase (Saccharomyces cerevisiae, UniProt P53341); experiment: Kinetics of enzyme inhibition (Lineweaver–Burk plots); format: biochemical; settings: for mode of inhibition: Lineweaver–Burk plot, same Vmax; for Ki: substrate para-nitrophenyl α-D-glucopyranoside, pH 6.8, 37 °C, read-out: inhibition constant (Ki)
T2 construct: purchased Sigma Chemical Co., St. Louis, MO, USA
T2 sequence (P53341 whole entry): as above
Method: In order to gain further insight into how these hybrids interact with α-glucosidase, the mode of inhibition for compounds 18 and 19 as representative examples was analyzed using the Lineweaver–Burk plot (Figure 2).
The inhibition types of the selected compounds were determined from Lineweavere–Burk plots. […] The enzyme reaction was performed according to the conditions described above.
Figure 2 Double-reciprocal plots of the inhibition kinetics of yeast α-glucosidase by compounds 18 (a), 19 (b).

[5] = Cell proliferation / viability CCK-8 assay; format: cell-based; settings: human, HL60 cells; HL60, 50 µM, 24 h, CCK-8
Method: (§4) Compounds 9, 13 and 17–20 with better inhibitory activity on α-glucosidase were selected to study the effect on cell viability and proliferation by CCK-8 assay (Figure 5). […] When viability was measured at 50 µM for these compounds, the viability of compound 19 was 96.97% compared with 20.89% for compound 20. […] With the increase in compound concentration, a lot of dead cells and more cell debris were observed, and the culture medium became muddy for 20, which was not obviously observed for 9, 13 and 17–19.
(§5) HL60 cells in DMEM supplemented with 10% fetal bovine serum were seeded at a density of 5 × 10^3 cells/well in a 96-well plate and incubated at 37 °C for 24 h. The medium was substituted with fresh medium containing a range of concentrations of inhibitors in DMSO and cultured for another 24 h. CCK-8 solution (10 µL) was added to each well incubated at 37 °C for 1 h. The absorbance was read on a BioTek µQuant Microplate Spectrophotometer at 450 nm. The cell vitality curve was depicted with GraphPad Prism (version 8.0).

HL60 cells = experiment: Cell proliferation / viability CCK-8 assay; format: cell-based; settings: for cell survival rate: HL60, 80 µM, 24 h, CCK-8
Method: as §4, §5

IC50 (α-glucosidase (yeast) [3]) [µM] | IC50 (β-glucosidase (almonds) [4]) [µM] | Structure (SMILES) | also measured
– | – | OC[C@@H]1[C@@H](O)[C@H](O)[C@@H](O)CN1CCCCn1cc(-c2ccccc2)nn1 [Compound 7] | IC50 (α-glucosidase (yeast) [1]): 551 ± 25 µM; IC50 (β-glucosidase (almonds) [2]): > 1000 µM
– | – | Cc1ccc(-c2cn(CCCCN3C[C@H](O)[C@@H](O)[C@H](O)[C@H]3CO)nn2)cc1 [Compound 8] | IC50 (α-glucosidase (yeast) [1]): 324 ± 65 µM; IC50 (β-glucosidase (almonds) [2]): > 1000 µM
– | – | CCCCCc1ccc(-c2cn(CCCCN3C[C@H](O)[C@@H](O)[C@H](O)[C@H]3CO)nn2)cc1 [Compound 9] | IC50 (α-glucosidase (yeast) [1]): 63 ± 6 µM; IC50 (β-glucosidase (almonds) [2]): 665 ± 57 µM
244 ± 32 | > 1000 | CCc1ccc(-c2cn(CCCCN3C[C@H](O)[C@@H](O)[C@H](O)[C@H]3CO)nn2)cc1 [Compound 10, (2R,3R,4R,5S)-1-(4-(4-(4-ethylphenyl)-1H-1,2,3-triazol-1-yl)butyl)-2-(hydroxymethyl)piperidine-3,4,5-triol] | –
171 ± 25 | 739 ± 78 | CCCc1ccc(-c2cn(CCCCN3C[C@H](O)[C@@H](O)[C@H](O)[C@H]3CO)nn2)cc1 [Compound 11, (2R,3R,4R,5S)-2-(hydroxymethyl)-1-(4-(4-(4-propylphenyl)-1H-1,2,3-triazol-1-yl)butyl)piperidine-3,4,5-triol] | –
105 ± 9 | 770 ± 92 | CCCCc1ccc(-c2cn(CCCCN3C[C@H](O)[C@@H](O)[C@H](O)[C@H]3CO)nn2)cc1 [Compound 12, (2R,3R,4R,5S)-1-(4-(4-(4-butylphenyl)-1H-1,2,3-triazol-1-yl)butyl)-2-(hydroxymethyl)piperidine-3,4,5-triol] | –
82 ± 5 | 529 ± 41 | CCCCCCc1ccc(-c2cn(CCCCN3C[C@H](O)[C@@H](O)[C@H](O)[C@H]3CO)nn2)cc1 [Compound 13, (2R,3R,4R,5S)-1-(4-(4-(4-hexylphenyl)-1H-1,2,3-triazol-1-yl)butyl)-2-(hydroxymethyl)piperidine-3,4,5-triol] | –
130 ± 9 | 130 ± 5 | OC[C@@H]1[C@@H](O)[C@H](O)[C@@H](O)CN1CCCCCCn1cc(-c2ccccc2)nn1 [Compound 14, (2R,3R,4R,5S)-2-(hydroxymethyl)-1-(6-(4-phenyl-1H-1,2,3-triazol-1-yl)hexyl)piperidine-3,4,5-triol] | –
68 ± 4 | 65 ± 2 | CCc1ccc(-c2cn(CCCCCCN3C[C@H](O)[C@@H](O)[C@H](O)[C@H]3CO)nn2)cc1 [Compound 16, (2R,3R,4R,5S)-1-(6-(4-(4-ethylphenyl)-1H-1,2,3-triazol-1-yl)hexyl)-2-(hydroxymethyl)piperidine-3,4,5-triol] | –
14 ± 1 | 62 ± 4 | CCCc1ccc(-c2cn(CCCCCCN3C[C@H](O)[C@@H](O)[C@H](O)[C@H]3CO)nn2)cc1 [Compound 17, (2R,3R,4R,5S)-2-(hydroxymethyl)-1-(6-(4-(4-propylphenyl)-1H-1,2,3-triazol-1-yl)hexyl)piperidine-3,4,5-triol] | –
16 ± 2 | 77 ± 4 | CCCCCCc1ccc(-c2cn(CCCCCCN3C[C@H](O)[C@@H](O)[C@H](O)[C@H]3CO)nn2)cc1 [Compound 20, (2R,3R,4R,5S)-1-(6-(4-(4-hexylphenyl)-1H-1,2,3-triazol-1-yl)hexyl)-2-(hydroxymethyl)piperidine-3,4,5-triol] | viability at 24 h, 50 µM [5]: 20.9%; cytotoxicity (HL60 cells; HL60, 50 µM): exhibited cytotoxicity; also recorded: cytotoxic; cell survival rate (HL60 cells): 6.66%

Structure (SMILES) | IC50 (α-glucosidase (yeast) [3]) [µM] | IC50 (β-glucosidase (almonds) [4]) [µM] | also measured
CCCCc1ccc(-c2cn(CCCCCCN3C[C@H](O)[C@@H](O)[C@H](O)[C@H]3CO)nn2)cc1 [Compound 18, (2R,3R,4R,5S)-1-(6-(4-(4-butylphenyl)-1H-1,2,3-triazol-1-yl)hexyl)-2-(hydroxymethyl)piperidine-3,4,5-triol] | 11 ± 1 | 69 ± 5 | mode of inhibition (yeast α-glucosidase): competitive; Ki (yeast α-glucosidase): 3.8 µM
CCCCCc1ccc(-c2cn(CCCCCCN3C[C@H](O)[C@@H](O)[C@H](O)[C@H]3CO)nn2)cc1 [Compound 19, (2R,3R,4R,5S)-2-(hydroxymethyl)-1-(6-(4-(4-pentylphenyl)-1H-1,2,3-triazol-1-yl)hexyl)piperidine-3,4,5-triol] | 11 ± 1 | 73 ± 7 | mode of inhibition (yeast α-glucosidase): competitive; Ki (yeast α-glucosidase): 3.7 µM; viability at 24 h, 50 µM [5]: 97%; cell survival rate (HL60 cells): 71.28%
